Patent publication US8802711B2, “TRPV1 antagonists” (AbbVie Inc., priority 2011, dated 2014)
pIC50: −log10 of the molar value. Like-named read-outs stand apart in the source and are kept apart here.

Experiments:
Sprague-Dawley rats [1] = assay: Rat acute capsaicin-induced flinching behavior; type: in vivo; settings: percent reduction in number of flinching behaviors
Description: (§1) Adult male Sprague-Dawley rats (250-300 g body weight, Charles River Laboratories, Portage, Mich.) were used. Animal handling and experimental protocols were approved by the Institutional Animal Care and Use Committee (IACUC) at Abbott Laboratories. For all surgical procedures, animals were maintained under isoflurane anesthesia (4-5% to induce, 1-3% to maintain), and the incision sites were sterilized using a 10% povidone-iodine solution prior to and after surgeries.
Rats were placed in individual observation cages. […] One hour after administration of the test compound, 2.5 μg of capsaicin in a 10 μL solution of 10% ethanol/90% hydroxypropyl-β-cyclodextrin was injected subcutaneously into the dorsal aspect of the right hind paw. The observation cage was then suspended above mirrors in order to facilitate observation. […] The number of flinching behaviors of the injured paw was recorded during the five minute observation period (Gilchrist, H. D.; Allard, B. L.; Simone, D. A.; Enhanced withdrawal responses to heat and mechanical stimuli following intraplantar injection of capsaicin in rats. Pain, 1996, 67, 179-188). The percent reduction in the number of flinching behaviors produced with oral administration of representative compounds of the present invention relative to control-treated animals (% effect) is reported in Table 3.

Sprague-Dawley rats [2] = assay: Rat tail immersion assay (noxious thermosensation); type: in vivo; settings: rat, 100 μmol/kg oral, one hour post dosing, 55° C. water bath, relative to vehicle
Description: as §1
Compounds were tested for their effects on noxious thermosensation using the tail immersion assay. Testing was performed one hour following oral administration of 100 μmol/kg of the compound in 10% ethanol/20% Tween-80/70% PEG-400 (2 mL/kg). Morphine (6 mg/kg) was administered interperitoneally (i.p.) using saline (2 mL/kg) as the vehicle. For testing, a circulating water bath was heated to 55° C. Thirty to sixty minutes post dosing, the rats were handled for a few seconds to calm them down and then cupped with their back against the tester's hand at a slight angle with head facing away from the tester. With rat in one hand and a 0.01 second stopwatch in the other hand, the tail was quickly immersed 6-8 cm in the water bath or to a distance leaving 2-3 cm of tail out of water. The timer was started simultaneously. When the rat flinched or attempted withdrawal, timer was immediately stopped and the rat's tail was quickly removed from water bath. This response latency (in seconds) was recorded. Process was repeated 3 times with 3-4 minutes between readings and the average response latency was calculated.
For a given example, a percent increase in the average response latency (in seconds) for tail withdrawal relative to a vehicle control was determined. % increase=[(tc−tv)/tv]×100%
tc=response latency (in seconds) with oral dosing of compounds
tv=response latency (in seconds) with oral dosing of vehicle
The % increases in tail withdrawal latency relative to vehicle control are divided into the following categories: […]

[3] = molecular target: human TRPV1 receptor (hTRPV1) (Homo sapiens (Human), UniProt Q8NER1); assay: Capsaicin activation assay (FLIPR intracellular Ca2+); type: cell-based; settings: inhibition of capsaicin-induced intracellular Ca2+ increase, read-out: hTRPV1 cap IC50
In short: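 Antagonism measured as [Ca2+]i fluorescence on FLIPR Tetra: compounds given 3 min ahead of capsaicin, added as 200 nM (4×), to dye-loaded hTRPV1-HEK293 cells. Response taken as baseline-subtracted peak, normalized to the 50 nM capsaicin control; 12-point one-third-log titrations.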

Sprague-Dawley rats [4] = assay: Sodium iodoacetate-induced knee joint osteoarthritic pain model; type: in vivo, rat; settings: 1 hour after dosing, % return to normalcy of hind limb grip force
Description: as §1
Unilateral knee joint osteoarthritis was induced in the rats by a single intra-articular (i.a.) injection of sodium iodoacetate (3 mg in 0.05 mL sterile isotonic saline) into the right knee joint cavity under light isoflurane anesthesia using a 26 G needle. […] Pain behavioral assessment of hind limb grip force was conducted by recording the maximum compressive force exerted on the hind limb strain gauge setup, in a commercially available grip force measurement system (Columbus Instruments, Columbus, Ohio), to elicit paw withdrawal. The grip force data was converted to a maximum hindlimb cumulative compressive force (CFmax) (gram force)/kg body weight for each animal. The analgesic effects of test compounds were determined 20 days following the i.a. injection of sodium iodoacetate. The vehicle control group for each compound being tested was assigned 0% whereas the age matched naïve group was assigned as being 100% (normal). The % effect for each dose group was then expressed as % return to normalcy compared to the naïve group. Test compounds were administered orally in 10% ethanol/20% Tween 80/70% polyethylene glycol-400 vehicle at a volume of 2 mL/kg. The assessment of the analgesic effects of test compounds was made 1 hour following oral administration. The assessment of the analgesic effects of test compounds can be made following a single dose or following repeated administration wherein the frequency of dosing is 1 to 2 times daily. The duration of such repeated daily dosing may last for any time greater than one day. A typical duration of repeated daily dosing is about 5 days to about 12 days.

[5] = Table 1, HEK293 cells expressing human TRPV1

human TRPV1 receptor (hTRPV1), sequence (Q8NER1 whole entry): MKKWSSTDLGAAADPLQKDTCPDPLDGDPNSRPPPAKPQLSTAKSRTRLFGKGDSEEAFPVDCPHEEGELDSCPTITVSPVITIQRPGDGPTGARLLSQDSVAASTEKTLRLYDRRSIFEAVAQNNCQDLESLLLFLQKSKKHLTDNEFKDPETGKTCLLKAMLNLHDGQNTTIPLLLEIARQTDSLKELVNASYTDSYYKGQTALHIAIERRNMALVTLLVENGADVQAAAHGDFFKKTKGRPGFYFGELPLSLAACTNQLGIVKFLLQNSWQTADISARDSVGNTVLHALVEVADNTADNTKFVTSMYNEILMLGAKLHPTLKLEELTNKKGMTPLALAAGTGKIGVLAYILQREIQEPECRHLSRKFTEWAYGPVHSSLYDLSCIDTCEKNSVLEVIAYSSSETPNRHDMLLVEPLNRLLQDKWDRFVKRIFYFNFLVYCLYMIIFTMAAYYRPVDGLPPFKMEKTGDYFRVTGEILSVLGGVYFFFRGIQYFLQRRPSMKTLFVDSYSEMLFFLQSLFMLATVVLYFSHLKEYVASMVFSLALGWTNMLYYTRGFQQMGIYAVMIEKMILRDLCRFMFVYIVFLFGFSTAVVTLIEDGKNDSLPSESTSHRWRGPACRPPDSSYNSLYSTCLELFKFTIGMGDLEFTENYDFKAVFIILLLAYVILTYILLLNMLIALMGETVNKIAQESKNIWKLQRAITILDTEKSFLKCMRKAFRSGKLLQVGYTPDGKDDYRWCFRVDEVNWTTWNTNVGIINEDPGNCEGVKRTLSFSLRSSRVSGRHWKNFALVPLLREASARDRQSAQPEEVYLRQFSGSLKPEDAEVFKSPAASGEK

Structure (SMILES) | % effect (Sprague-Dawley rats [1]; 10 μmol/kg p.o.) [%] | % Increase in tail withdrawal latency (Sprague-Dawley rats [2]) | pIC50 [3, 5] | pIC50 ([3]; Table 2) | % effect (Sprague-Dawley rats [4]; 10 mg/kg p.o.) [%] | change in vivo at 100 µmol/kg (Sprague-Dawley rats [2]; 1 h, read-out: % Increase in tail withdrawal latency) [%] | % effect (Sprague-Dawley rats [1]; 100 μmol/kg p.o.) [%] | % effect (Sprague-Dawley rats [4]; 100 μmol/kg p.o.) [%]
O=C(Nc1cccc2[nH]ncc12)N[C@H]1CC[C@H](c2ccccc2)C1 [Example 14, 1-(1H-indazol-4-yl)-3-[(1S,3S)-3-phenylcyclopentyl]urea] | 76 | − | 7.52 | 7.52 |  |  |  | 
O=C(Nc1cccc2[nH]ncc12)N[C@@H]1CC[C@@H](c2ccccc2)C1 [Example 21, 1-(1H-indazol-4-yl)-3-[(1R,3R)-3-phenylcyclopentyl]urea] |  |  | 7.70 | 7.70 | 37 | 10 to 25 |  | 
Cc1cc2c(NC(=O)N[C@@H]3CC[C@H](c4ccccc4)C3)c(F)ccc2cn1 [Example 6, 1-(6-fluoro-3-methylisoquinolin-5-yl)-3-[(1R,3S)-3-phenylcyclopentyl]urea] |  | − | 8.40 | 8.40 |  |  | 88 | 
Cn1ncc2c(NC(=O)N[C@@H]3CC[C@H](c4ccccc4)C3)cccc21 [Example 4, 1-(1-methyl-1H-indazol-4-yl)-3-[(1R,3S)-3-phenylcyclopentyl]urea] |  | − | 7.74 | 7.66 | 50 |  |  | 
O=C(Nc1cccc2[nH]ncc12)N[C@H]1CC[C@@H](c2ccccc2)C1 [Example 28, 1-(1H-indazol-4-yl)-3-[(1S,3R)-3-phenylcyclopentyl]urea] | 60 | − | 7.19 | 7.19 |  |  |  | 78
